{
  "source": "paper PMC8626825",
  "about": "(Virology, 2021)",
  "key": {"OC43 [1]": {"test_system": "OC43", "experiment": "OC43 viral RNA accumulation in MRC5 cells", "type": "cell-based, human betacoronavirus (OC43)", "conditions": "MRC5, OC43, 24 hpi"}, "SARS-CoV-2 [2]": {"test_system": "SARS-CoV-2", "experiment": "SARS-CoV-2 RNA accumulation in MRC5-ACE2 cells", "type": "cell-based, SARS-CoV-2 isolate Hong Kong/VM20001061/2020"}, "[3]": {"conditions": "cited from earlier work; for maximal accumulation in plasma: healthy patients given remdesivir, ref Jorgensen et al.; for maximal accumulation in plasma / concentration in bronchoalveolar aspirates: 2020; for concentration in bronchoalveolar aspirates: remdesivir treated COVID-19 patients, ref Pan et al."}, "OC43 [4]": {"test_system": "OC43", "conditions": "for effect of co-treatment on IC50 of remdesivir against OC43-induced CPE: co-treatment with remdesivir, 5 μM lapatinib or 10 μM doramapimod"}, "SARS-CoV-2 N protein": {"test_system": "SARS-CoV-2 N protein", "experiment": "SARS-CoV-2 N protein accumulation in MRC5-ACE2 cells", "type": "cell-based"}, "SARS-CoV-2 [5]": {"test_system": "SARS-CoV-2", "type": "cell-based"}, "SARS-CoV-2 [6]": {"test_system": "SARS-CoV-2", "experiment": "SARS-CoV-2-induced cytopathic effect in MRC5-ACE2 cells", "type": "cell-based"}, "OC43 [7]": {"test_system": "OC43", "type": "cell-based, human betacoronavirus (OC43)", "conditions": "OC43, MRC5"}, "SARS-CoV-2 [8]": {"test_system": "SARS-CoV-2", "conditions": "ref Dittmar et al., 2021; cited from earlier work"}, "SARS-CoV-2 [9]": {"test_system": "SARS-CoV-2", "conditions": "SOLIDARITY trial, ref Pan et al., 2020; cited from earlier work"}, "3CLpro [10]": {"test_system": "3CLpro", "conditions": "2020, cited from earlier work"}, "3CLpro [11]": {"test_system": "3CLpro", "conditions": "ref Ghahremanpour et al., 2020; cited from earlier work"}, "[12]": {"conditions": "lapatinib, human patients, ref Spector et al., 2015"}},
  "data": [
    {"smiles": "C=CCNC1=C2C[C@@H](C)C[C@H](OC)[C@H](O)[C@@H](C)/C=C(\\C)[C@H](OC(N)=O)[C@@H](OC)/C=C\\C=C(/C)C(=O)NC(=CC1=O)C2=O", "note": "[17-AAG]", "values": [
      {"measurement": "dose blocking OC43 viral RNA accumulation relative to remdesivir (fold less)", "setting": "OC43 [1]", "result": "~10", "unit": "fold"},
      {"measurement": "SARS-CoV-2 RNA accumulation", "setting": "SARS-CoV-2 [2]", "result": "only minimally reduced SARS-CoV-2 RNA accumulation"}
    ]},
    {"smiles": "N#C[C@@]1(c2ccc3c(N)ncnn23)O[C@H](CO)[C@@H](O)[C@H]1O", "note": "[GS-441524]", "values": [
      {"measurement": "maximal accumulation in plasma", "setting": "[3]", "result": "about 0.5 μM"},
      {"measurement": "concentration in bronchoalveolar aspirates", "setting": "[3]", "result": "~15", "unit": "nM"}
    ]},
    {"smiles": "Cc1ccc(-n2nc(C(C)(C)C)cc2NC(=O)Nc2ccc(OCCN3CCOCC3)c3ccccc23)cc1", "note": "[doramapimod]", "values": [
      {"measurement": "effect of co-treatment on IC50 of remdesivir against OC43-induced CPE", "setting": "OC43 [4]", "result": "reduced the IC50 of remdesivir into the sub-μM range"},
      {"measurement": "SARS-CoV-2 RNA accumulation", "setting": "SARS-CoV-2 [2]", "result": "able to block SARS-CoV-2 RNA accumulation at a low μM concentration"},
      {"measurement": "dose of remdesivir required to abolish SARS-CoV-2 RNA accumulation", "setting": "SARS-CoV-2 [2]", "result": "dramatically reduce the dose of remdesivir required"},
      {"measurement": "SARS-CoV-2 N protein accumulation", "setting": "SARS-CoV-2 N protein", "result": "completely prevented SARS-CoV-2 N protein accumulation"},
      {"measurement": "dose of remdesivir required to abolish production of infectious virions", "setting": "SARS-CoV-2 [5]", "result": "dramatically reduce the dose of remdesivir required"},
      {"measurement": "SARS-CoV-2-induced CPE", "setting": "SARS-CoV-2 [6]", "result": "blocked SARS-CoV-2-induced CPE"}
    ]},
    {"smiles": "C#Cc1cccc(Nc2ncnc3cc(OCCOC)c(OCCOC)cc23)c1", "note": "[erlotinib]", "values": [
      {"measurement": "identified as hit in the screen", "setting": "OC43 [7]", "result": "not identified"}
    ]},
    {"smiles": "COc1cc2ncnc(Nc3ccc(F)c(Cl)c3)c2cc1OCCCN1CCOCC1", "note": "[gefitinib]", "values": [
      {"measurement": "identified as hit in the screen", "setting": "OC43 [7]", "result": "not identified"}
    ]},
    {"smiles": "CCN(CCO)CCCC(C)Nc1ccnc2cc(Cl)ccc12", "note": "(stereo not drawn) [hydroxychloroquine]", "values": [
      {"measurement": "activity against SARS-CoV-2 in human lung epithelial cell lines", "setting": "SARS-CoV-2 [8]", "result": "ineffective"},
      {"measurement": "clinical effectiveness", "setting": "SARS-CoV-2 [9]", "result": "not clinically effective"}
    ]},
    {"smiles": "CS(=O)(=O)CCNCc1ccc(-c2ccc3ncnc(Nc4ccc(OCc5cccc(F)c5)c(Cl)c4)c3c2)o1", "note": "[lapatinib]", "values": [
      {"measurement": "concentration in tissue samples", "setting": "[3]; [12]", "result": "8 to 12", "unit": "µM"},
      {"measurement": "plasma concentration in human patients", "setting": "[3]; [12]", "result": "1 to 3", "unit": "µM"},
      {"measurement": "inhibition of 3CLpro activity", "setting": "3CLpro [10]; pre-print, ref Drayman et al.", "result": "could, in fact, inhibit the activity of 3CLpro"},
      {"measurement": "inhibition of 3CLpro (experimental)", "setting": "3CLpro [10]; ref Ghahremanpour et al.", "result": "did not inhibit 3CLpro"},
      {"measurement": "effect of co-treatment on IC50 of remdesivir against OC43-induced CPE", "setting": "OC43 [4]", "result": "reduced the IC50 of remdesivir into the sub-μM range"},
      {"measurement": "SARS-CoV-2 RNA accumulation", "setting": "SARS-CoV-2 [2]", "result": "dramatic reduction in viral RNA accumulation"},
      {"measurement": "dose of remdesivir required to abolish SARS-CoV-2 RNA accumulation", "setting": "SARS-CoV-2 [2]", "result": "dramatically reduce the dose of remdesivir required"},
      {"measurement": "inhibition of SARS-CoV-2 RNA replication", "setting": "SARS-CoV-2 [2]", "result": "over 50,000 fold"},
      {"measurement": "in silico molecular docking result", "setting": "3CLpro [11]", "result": "putative inhibitor of the SARS-CoV-2 protease, 3CLpro"},
      {"measurement": "SARS-CoV-2 N protein accumulation", "setting": "SARS-CoV-2 N protein", "result": "completely prevented SARS-CoV-2 N protein accumulation"},
      {"measurement": "dose of remdesivir required to abolish production of infectious virions", "setting": "SARS-CoV-2 [5]", "result": "dramatically reduce the dose of remdesivir required"},
      {"measurement": "SARS-CoV-2-induced CPE", "setting": "SARS-CoV-2 [6]", "result": "blocked SARS-CoV-2-induced CPE"}
    ]},
    {"smiles": "CCC(CC)COC(=O)[C@H](C)N[P@](=O)(OC[C@H]1O[C@@](C#N)(c2ccc3c(N)ncnn23)[C@H](O)[C@@H]1O)Oc1ccccc1", "note": "[remdesivir]", "values": [
      {"measurement": "maximal accumulation in plasma", "setting": "[3]", "result": "4 to 9", "unit": "µM"},
      {"measurement": "concentration in bronchoalveolar aspirates", "setting": "[3]", "result": "not detectable"},
      {"measurement": "clinical effectiveness", "setting": "SARS-CoV-2 [9]", "result": "not clinically effective"},
      {"measurement": "IC50 of remdesivir against OC43-induced CPE", "setting": "OC43 [4]; remdesivir alone, MRC5", "result": "in the μM range"}
    ]}
  ]
}
